In US4067997A, “Synergistic microbecidal composition and method” (priority 1976, dated 1978):
≈ marks a conversion by molar mass, not a printed value. Read-outs that look alike come from different tables or passages of the source.

Assays:
Group A Strep. = experiment: MIC of potassium soaps of unsaturated fatty acids (Example III); type: cell-based, Group A β-hemolytic Streptococci; settings: Table 10, Group A Strep.
Streptococcus Group D = experiment: MIC, broth dilution (Examples I/II); type: cell-based; settings: Table 3, Streptococcus Group D
Procedure: In order to establish comparative bactericidal and fungicidal results with homologous fatty acids, a series of experiments was performed with thirty straight-chain fatty acids and derivatives thereof. Eight different gram-negative and twelve different gram-positive organisms, representing a very broad spectrum of organisms, were used in these experiments including the fungus Candida (a yeast). Additionally, fatty acids were chosen to show the effects of saturation versus unsaturation, in the fatty acid claim. Standard solutions of the fatty acids and their derivatives were prepared by first dissolving the weighed compounds in 1 to 2 ml of 95% ethanol and immediately pouring this solution into 200 ml of Tripticase Soy Broth. These lipid compounds which are insoluble in water and broth precipitated into very small crystals or droplets. The tubes containing the suspension were warmed to approximately 70° C and were then placed in an ultrasonic tank for further solubilization of the lipid derivatives.
Standard solutions (or suspensions) at 1,000 μg/ml were twofold serially diluted with additional broth to a concentration of 125 μg/ml. A 4-ml amount of each dilution was then quickly, and with constant agitation, dispensed into appropriately labeled screw-capped glass tubes (16 by 125 mm). The tubes were sterilized with steam at 15 psi for 15 minutes. After sterilization, all tubes were cooled and incubated overnight at 35° C to insure sterility.
All compounds were compared on a molar (micromoles/milliliter) rather than on a mass basis. In the following lists of organisms used, those followed by a parenthetical number are registered with the American Type Culture Collection (ATCC); the remainder were isolates from Providence Hospital or Northland Laboratory.
One drop (0.04 ± 0.01 ml) of an 18-hr broth culture containing 10^7 and 10^9 organisms/ml was added to each dilution of the test compound, as well as to a tube of plain broth which served as the positive control. After inoculation, the contents of each tube were well mixed, and the tubes were incubated at 35° C in a 5% carbon dioxide + […] atmosphere.
The MIC is defined as the lowest concentration of compound at which no […] evidence of growth was observed when turbidity of the inoculated broth dilutions was compared with control tubes. […] Only a one-tube difference between the bactericidal and bacteriostatic concentrations was normally observed.
Standard solutions (1000 μg/ml) of three fatty acids and polyglycerol esters thereof were prepared as described in Example I. Also sucrose esters were prepared by transferring the weighed compounds (0.2 gm. dissolved in 1 ml absolute methanol) into 200 ml of sterile Trypticase Soy Broth (TSB). These standard solutions (1000 μg/ml) were twofold serially diluted with additional sterile broth to a concentration of 125 μg/ml. A 3.8 aliquot of each dilution was asceptically delivered into sterile screw-capped culture tubes. All tubes were incubated overnight at 36° C to insure sterility. The microorganisms used in this example were the same as those used in Example I.
The inoculum, 0.05 ml of an 13-24 hour TSB culture (approximately 10^9 organisms/ml) was asceptically delivered into all dilutions of the compounds, mixed well, and incubated at 36° C. A tube of inoculated broth without the compound served as a positive control and an uninoculated set of dilutions incubated along with the test dilutions, served as a negative control.
In those cases in which the test compound itself caused turbidity, an aliquot (0.015 ml) of the mixed broth was inoculated onto an agar plate and incubated at 36° C for examination, as described in Example I. The control procedure of Example I was also repeated. The lauric, capric, and oleic acids were used as internal controls and for comparison to Example I. The minimal inhibitory concentrations (μmole/ml) for the compounds studied are given in Tables 7 and 8.

Bacillus subtilis = experiment: MIC, agar dilution method (Example XVI); type: cell-based; settings: Bacillus subtilis
Excerpt: (§1) In a manner similar to that described in Example V, the effectiveness of certain food-grade microbecides are compared with mono-esters in an agar dilution method. The very favorable results may be noted from Table 19.

Pseudomonas aeruginosa = experiment: MIC, agar dilution method (Example XVI); type: cell-based; settings: Pseudomonas aeruginosa
Excerpt: as §1

Canadida albicans = experiment: MIC, agar dilution method (Example XVI); type: cell-based
Excerpt: as §1

Escherichia coli = experiment: MIC, agar dilution method (Example XVI); type: cell-based; settings: Escherichia coli
Excerpt: as §1

Staphylococcus aureus = experiment: MIC, agar dilution method (Example XVI); type: cell-based; settings: Staphylococcus aureus
Excerpt: as §1

Aspergillus niger = experiment: MIC, agar dilution method (Example XVI); type: cell-based; settings: Aspergillus niger
Excerpt: as §1

[1] = Table 19, agar dilution, read-out: MIC

`CCCCCC=CCCCCCC=CCCCC(=O)O` [.increment.^5 12] gave an MIC (Group A Strep.) of 20 µM.

For `CCCCCCCC=CCCC=CCCCCC(=O)O` [.increment.^6 10], the MIC (Group A Strep.) was 10 µM.

Work on `CCCCCCC=CCCCC=CCCCCC(=O)O` [.increment.^6 11] yielded an MIC (Group A Strep.) of 20 µM.

Work on `CCCCCC=CCCCCC=CCCCCC(=O)O` [.increment.^6 12] yielded an MIC (Group A Strep.) of 10 µM.

Compound `CCCCCC=CCCCC=CCCCCCC(=O)O` [.increment.^7 12] has an MIC (Group A Strep.) of 20 µM.

In the case of `CCCCC/C=C/CC/C=C/CCCCCCC(=O)O` [.increment.^8 12], the MIC (Group A Strep.) is reported as 20 µM.

With `CCCCCC=CCC=CCCCCCCCC(=O)O` [.increment.^9 12] the MIC (Group A Strep.) was 10 µM.

For `O=C(O)CCCCCCCCCCC(=O)O` [Dodecanedioic acid], the MIC (Streptococcus Group D) was “Ni”.

`COC(=O)c1ccc(O)cc1` [Methyl paraben] gave an MIC (Bacillus subtilis; [1]) of 5000 µg/mL (≈ 32.9 mM), an MIC (Pseudomonas aeruginosa; [1]) of 5000 µg/mL (≈ 32.9 mM) and an MIC (Canadida albicans; [1]) of 2500 µg/mL (≈ 16.4 mM). The MIC (Escherichia coli; [1]) was 2500 µg/mL (≈ 16.4 mM), the MIC (Staphylococcus aureus; [1]) was 5000 µg/mL (≈ 32.9 mM) and the MIC (Aspergillus niger; [1]) was 2500 µg/mL (≈ 16.4 mM).

In the case of `CCCCCC/C=C\CCCCCCCC(=O)[O-].[Na+]` [Palmitoleic acid sodium salt], the MIC (Bacillus subtilis) is reported as 500 µg/mL, the MIC (Pseudomonas aeruginosa) is reported as > 1000 µg/mL and the MIC (Canadida albicans) is reported as > 1000 µg/mL. The MIC (Escherichia coli) was > 1000 µg/mL, the MIC (Staphylococcus aureus) was 15.6 µg/mL and the MIC (Aspergillus niger) was > 1000 µg/mL.

Work on `Oc1ccccc1` [Phenol] yielded an MIC (Bacillus subtilis) of 1250 µg/mL (≈ 13.3 mM), an MIC (Pseudomonas aeruginosa) of 1250 µg/mL (≈ 13.3 mM) and an MIC (Canadida albicans) of 1250 to 2500 µg/mL (≈ 13.3 to 26.6 mM). The MIC (Escherichia coli) was 2500 µg/mL (≈ 26.6 mM), the MIC (Staphylococcus aureus) was 1250 to 2500 µg/mL (≈ 13.3 to 26.6 mM) and the MIC (Aspergillus niger) was 1250 µg/mL (≈ 13.3 mM).

With `CCCOC(=O)c1ccc(O)cc1` [Propyl paraben] the MIC (Bacillus subtilis; [1]) was 2500 µg/mL (≈ 13.9 mM), the MIC (Pseudomonas aeruginosa; [1]) was > 10000 µg/mL and the MIC (Canadida albicans; [1]) was 2500 µg/mL (≈ 13.9 mM). The MIC (Escherichia coli; [1]) was 5000 µg/mL (≈ 27.7 mM), the MIC (Staphylococcus aureus; [1]) was 2500 µg/mL (≈ 13.9 mM) and the MIC (Aspergillus niger; [1]) was 2500 µg/mL (≈ 13.9 mM).
